Assay results as given in patent US20050037939A1, “Bottlewash additive” (Scimed Life Systems, Inc., priority 2002, published 2005).

Tested on: mold on REF-PET bottles
Experiment: Mold Remove Ability Test
Conditions: alkaline bottlewashing environment; conditions not given
Experimental: 1. Mold Remove Ability Test A) Compositions are prepared according to the following general formula: [table] B) Select field returned bottles with heavy mold (black). Select 4 bottles per testing sequence. C) Cut the mold samples from REF-PET bottles using a utility knife. D) Label PET/mold pieces to keep track of the source bottle and the solution in which they are tested. E) Prepare solutions using 2.8% NaOH and 1% of the bottlewashing additive unless otherwise specified. F) Preheat the solutions to 55° C. G) Immerse PET/mold samples in respective bottlewashing compositions and soaked for 15 minutes with stirring at 400 rpm. H) If the mold is removed during testing note the time of removal. I) Remove the samples from solution. If the mold was not removed, rinse the sample in tap water for 10 seconds to see if mold can be removed at this point. J) Grade the samples by a % of mold removed and average the 4 tests as well as the time required for removal (Time Removal Grade). Time Grade is defined as follows: [table] Other Grades may be in between or lower depending on total mold removal

Substance: C6 alkyl diphenylene oxide disulfonate
- cleaning / mold removal by the surfactant (general statement): superior cleaning/mold removal characteristics
